# Laboratory results as given in patent US10111854B2, “Synthesis and use of amine-containing flavonoids as potent anti-leishmanial agents” (The Hong Kong Polytechnic University, priority 2014, dated 2018).
# Counter-ions that a name gives are not always drawn.
# Assays:
# [1] = system: L. donovani HU3 amastigotes; test: Anti-amastigote activity in infected PEM, L. donovani HU3; assay type: cell-based; settings: infected PEM, 3 days, Giemsa, SSG-sensitive
# Protocol: (§1) Mouse peritoneal elicited macrophages (PEM) were obtained as previously described (2). A round cover slip (12 mm in diameter) was placed into each well of 24-well culture plate. Mouse PEM were resuspended in supplemented DMEM media containing 10% heat inactivated FBS (v/v), 100 U/mL penicillin and 100 μg/mL streptomycin and seeded into each well at a cell density of 1×10^5 cells per 500 μL. Macrophages were allowed to attach overnight. Non-adherent cells were removed by gentle washing with un-supplemented DMEM media twice. Adherent macrophages were infected with late-log promastigotes at a parasite-to-macrophage ratio of 20:1 overnight at 37° C. with 5% CO2. Non-internalized promastigotes were removed by washing twice with un-supplemented DMEM media. Infected macrophages were further incubated in 500 μL of supplemented DMEM media in the presence or absence of FM for 72 hours at 37° C. After incubation, cover slips were stained with Giemsa and the percentage of macrophages infected and number of amastigotes per 100 macrophages was enumerated.
# (§2) PEM cells were infected with late-log promastigotes (L. amazonensis LV78, L. braziliensis UA847, L. donovani HU3, L. donovani 39) for 24 hr at 37° C. Infected macrophages were then treated with various antileishmanials and incubated for 3 days at 37° C. After 3 days, the cover slips were stained with Giemsa. The number of amastigotes per 100 macrophages were determined and used to calculate IC50 values.
# [2] = system: L. amazonensis LV78 amastigotes; test: Anti-amastigote activity in infected PEM, L. amazonensis LV78; assay type: cell-based; settings: for IC50: infected PEM, 3 days, Giemsa; for Selective index (a)/(b): IC50 RAW264.7 over IC50 L. amazonensis LV78 amastigotes
# Protocol: as §1, §2
# [3] = system: peritoneal elicited macrophages (PEM); test: Cytotoxicity, peritoneal elicited macrophages (PEM); assay type: cell-based, mouse
# Protocol: as §1
# (§3) IC50 values of known antileishmanials and the amine-containing flavonoid monomers of the present invention to promastigotes (L. amazonensis LV78, L major FV1, L. donovani HU3, L. donovani 39), macrophages (Raw 264.7 and PEM) and mouse fibroblast (L929) were determined. The anti-promastigotes activities and cytotoxicity of the amine-containing flavonoid monomers of the invention are shown in Table 1.
# [4] = system: L. donovani HU3 promastigotes; test: Anti-promastigote activity (MTS assay), L. donovani HU3; assay type: cell-based; settings: 72 hours
# Protocol: (§4) Promastigotes of visceral L. donovani Ld39 and LdHU3, and cutaneous L. amazonensis LV78, L. braziliensis UA847 and L. major FV1 were employed in the study. All strains were cultured in Schneider's Drosophila Medium (Invitrogen), pH 6.9 supplemented with 10% (v/v) heat inactivated fetal bovine serum (Hyclone) with 4 mM glutamine (Sigma) and 25 μg/mL gentamicin solution (Invitrogen) at 27° C. for 4 days. RAW264.7 cells were cultured in supplemented DMEM media with 10% heat inactivated FBS and 100 U/mL penicillin and 100 μg/mL of streptomycin. They were maintained at 37° C. in a humidified atmosphere with 5% CO2. The cells were split constantly after a confluent monolayer has been formed. The cells were harvested by a cell scraper.
# (§5) Anti-promastigote activity was determined according to previous procedures (1) by Cell Titer 96® Aqueous Assay (Promega) that employed a tetrazolium compound. Promastigotes were seeded into 96-well flat bottom microtiter plate at 1×10^5 cells per well in a final volume of 100 μL medium and incubated with a series of concentrations of synthetic FM. Parasites were incubated at 27° C. for 72 hours. After 72 hours of incubation, 10 μL of MTS:PMS mixture [MTS:2-(4,5-Dimethylthiazol-2-yl-)-5-[3-(carboxymethoxy)phenyl]-2-(4-sulfophenyl)-2H-tetrazolium); PMS: phenazine methosulfate both purchased from Sigma] was added into each well of microtiter plate. The plate was then incubated at 27° C. for 4 hours for color development. After 4 hours of incubation, the OD values were determined at 490 nm using automatic microtiter plate reader (Bio-Rad).
# as §3
# [5] = system: L. amazonensis LV78 promastigotes; test: Anti-promastigote activity (MTS assay), L. amazonensis LV78; assay type: cell-based; settings: 72 hours
# Protocol: as §4, §5, §3
# [6] = system: L. major FV1 promastigotes; test: Anti-promastigote activity (MTS assay), L. major FV1; assay type: cell-based; settings: 72 hours
# Protocol: as §4, §5, §3
# [7] = system: L. donovani Ld39 promastigotes; test: Anti-promastigote activity (MTS assay), L. donovani Ld39; assay type: cell-based; settings: 72 hours
# Protocol: as §4, §5, §3
# [8] = Cytotoxicity, L929 fibroblasts; assay type: cell-based, mouse; settings: mouse
# Protocol: as §3
# [9] = system: L. donovani Ld39 amastigotes (SSG-resistant); test: Anti-amastigote activity in infected PEM, L. donovani Ld39; assay type: cell-based; settings: for IC50: Leishmania donovani, 72 h, infected PEM, 3 days, Giemsa, SSG-resistant
# Protocol: as §1, §2
# [10] = system: L. braziliensis UA847 amastigotes; test: Anti-amastigote activity in infected PEM, L. braziliensis UA847; assay type: cell-based; settings: Leishmania braziliensis, 72 h, 3 days, Giemsa, read-out: Anti-amastigote activity IC50, L. baziliensis UA847
# Protocol: as §1, §2
# mouse fibroblast (L929) = test: Cytotoxicity, L929 fibroblasts; assay type: cell-based; settings: mouse fibroblast L929
# Protocol: as §3
# [11] = system: L. amazonensis and L. donovani HU3 promastigotes and amastigotes; test: Anti-promastigote and anti-amastigote activity of FM09, FM01 and FM05 derivatives; assay type: cell-based, Leishmania; settings: stage and strain not specified; read-out: IC50, anti-promastigote and anti-amastigote activity (Table 3C)
# Protocol: Derivatives of FM09, FM01 and FM05 were synthesized and their anti-promastigote and anti-amastigote activity were determined (Table 3C). Many amine-containing flavonoid monomers have IC50 less than 5 μM, including FM09a, FM09b, FM09c, FM09e, FM09h, FM09i, FM09k, FM09l, FM01b and FM05b.
# [12] = Cytotoxicity, peritoneal elicited macrophages (PEM); assay type: cell-based, mouse; settings: mouse, Cytotoxicity IC50, PEM
# Protocol: as §1, §3
# [13] = Pharmacokinetics study of FM09, FM09h and FM05b, iv and oral; assay type: in vivo, Balb/c mice; settings: 50 mg/kg oral; for bioavailability: Balb/c, mouse, plasma, 10 mg/kg iv, dose-adjusted AUC oral over iv, read-out: Bioavailability (F)
# Protocol: Animals were sacrificed at the indicated time point and plasma level of the corresponding flavonoids were determined using LC-MSMS. IC50 of corresponding flavonoids are indicated. Bioavailability (F) was calculated by dividing the dose-adjusted area under curve (AUC) of that of orally-fed over intravenously administered animals.
# [14] = system: amastigotes (L. amazonensis LV78, L. braziliensis UA847, L. donovani HU3, L. donovani 39); test: Anti-amastigote activity, strain not given; assay type: cell-based; settings: strain not specified; visceral and cutaneous Leishmania; read-out: IC50 against amastigotes
# Protocol: as §1, §2
# [15] = Pharmacokinetics of FM05 hydrochloride salt, oral; assay type: in vivo, Balb/c mice; settings: mouse, in vivo, po, 42 mg/kg
# Protocol: Based on the result of the preliminary in vivo study, FM05 hydrochloride salt was selected for further investigation. FM05 hydrochloride salt was dissolved in saline at 4 mg/ml and administered to male balb/c at 42 mg/kg. Blood plasma samples were collected at various time points for pharmacokinetics analysis (n=2 to 3 for each time point).
"IC50 ([2]; Leishmania amazonensis, 72 h)",IC50 ([4]; Leishmania donovani),IC50 ([5]; Leishmania amazonensis),"IC50 ([1]; Leishmania donovani, 72 h)",IC50 [11],Structure (SMILES),IC50 [8],IC50 [12],other results
> 10 µM,38.8 ± 6.9 µM,> 100 µM,–,–,"CS(=O)(=O)NCCOCCOc1ccc(-c2cc(=O)c3ccccc3o2)cc1 [FM07, N-(2-(2-(4-(4-oxo-4H-chromen-2-yl)phenoxy)ethoxy)ethyl)methanesulfonamide]",26 ± 4.1 µM,–,IC50 ([6]; Leishmania major): > 100 µM; IC50 ([7]; Leishmania donovani): 21.4 ± 2.6 µM; IC50 [9]: > 10 µM; IC50 [10]: > 10 µM
> 10 µM,66.2 ± 11 µM,> 100 µM,> 9 µM,–,"O=C(NCCOCCOc1ccc(-c2cc(=O)c3ccccc3o2)cc1)c1ccncc1 [FM03, N-(2-(2-(4-(4-oxo-4H-chromen-2-yl)phenoxy)ethoxy)ethyl)isonicotinamide]",> 100 µM,–,IC50 ([6]; Leishmania major): > 100 µM; IC50 ([7]; Leishmania donovani): > 100 µM; IC50 [9]: > 10 µM; IC50 [10]: > 10 µM
0.32 ± 0.02 µM,1.06 ± 0.1 µM,0.16 ± 0.05 µM,0.3 ± 0.04 µM,< 5 µM,"COCCCOc1ccnc(CN(CCOCCOc2ccc(-c3cc(=O)c4ccccc4o3)cc2)Cc2nccc(OCCCOC)c2C)c1C [FM09k, 2-(4-(2-(2-(bis((4-(3-methoxypropoxy)-3-methylpyridin-2-yl)methyl)amino)ethoxy)ethoxy)phenyl)-4H-chromen-4-one]",4.7 ± 0.71 µM,5.3 µM,–
0.3 ± 0.06 µM,0.89 ± 0.33 µM,0.57 ± 0.17 µM,0.7 ± 0.37 µM,< 5 µM,"COc1ccnc(CN2CCC(CCOc3ccc(-c4cc(=O)c5ccccc5o4)cc3)CC2)c1OC [FM05b, 2-(4-(2-(1-((3,4-dimethoxypyridin-2-yl)methyl)piperidin-4-yl)ethoxy)phenyl)-4H-chromen-4-one]",10.6 ± 1.13 µM,5.1 µM,Time post oral feeding at which plasma level remains higher than respective IC50 [13]: 420 min; bioavailability [13]: 36%
1.95 ± 0.78 µM,5.09 ± 1.13 µM,3.19 ± 0.66 µM,3.1 µM,< 5 µM,"O=c1cc(-c2ccc(OCCOCCN(Cc3ncccc3F)Cc3ncccc3F)cc2)oc2ccccc12 [FM09c, 2-(4-(2-(2-(bis((3-fluoropyridin-2-yl)methyl)amino)ethoxy)ethoxy)phenyl)-4H-chromen-4-one]",–,35.4 ± 1.05 µM,–
1.3 ± 0.6 µM,9.8 ± 2.5 µM,17.5 ± 3.2 µM,> 10 µM,–,"O=c1cc(-c2ccc(OCCOCCN(Cc3ccccc3)Cc3ccccc3)cc2)oc2ccccc12 [FM19, 2-(4-(2-(2-(dibenzylamino)ethoxy)ethoxy)phenyl)-4H-chromen-4-one]",55.1 ± 7.2 µM,–,IC50 [14]: < 5 µM; IC50 ([6]; Leishmania major): 21.6 ± 4.2 µM; IC50 ([7]; Leishmania donovani): > 100 µM; Selective index (a)/(b) [2]: >76.9; IC50 [9]: > 10 µM; IC50 [10]: < 0.37 µM
0.27 ± 0.02 µM,0.18 ± 0.07 µM,0.08 ± 0.01 µM,0.3 ± 0.05 µM,< 5 µM,"COc1c(C)cnc(CN(CCOCCOc2ccc(-c3cc(=O)c4ccccc4o3)cc2)Cc2ncc(C)c(OC)c2C)c1C [FM09i, 2-(4-(2-(2-(bis((4-methoxy-3,5-dimethylpyridin-2-yl)methyl)amino)ethoxy)ethoxy)phenyl)-4H-chromen-4-one]",2.28 ± 0.83 µM,4.5 µM,–
0.29 ± 0.05 µM,1.09 ± 0.09 µM,0.47 ± 0.07 µM,0.3 ± 0.04 µM,< 5 µM,"Cc1c(OCC(F)(F)F)ccnc1CN(CCOCCOc1ccc(-c2cc(=O)c3ccccc3o2)cc1)Cc1nccc(OCC(F)(F)F)c1C [FM09h, 2-(4-(2-(2-(bis((3-methyl-4-(2,2,2-trifluoroethoxy)pyridin-2-yl)methyl)amino)ethoxy)ethoxy)phenyl)-4H-chromen-4-one]",3.62 ± 0.51 µM,6.4 µM,Time post oral feeding at which plasma level remains higher than respective IC50 [13]: 180 min; bioavailability [13]: 5%
3.03 ± 0.41 µM,4.74 ± 0.56 µM,4.44 ± 1.24 µM,4.5 ± 2.38 µM,< 5 µM,"O=c1cc(-c2ccc(OCCOCCN(Cc3ccc4ccccc4n3)Cc3ccc4ccccc4n3)cc2)oc2ccccc12 [FM09l, 2-(4-(2-(2-(bis(quinolin-2-ylmethyl)amino)ethoxy)ethoxy)phenyl)-4H-chromen-4-one]",> 100 µM,67.1 µM,–

# Second part, the compound before the results:
Structure (SMILES),"IC50 ([2]; Leishmania amazonensis, 72 h)",IC50 ([4]; Leishmania donovani),IC50 ([5]; Leishmania amazonensis),"IC50 ([1]; Leishmania donovani, 72 h)",IC50 [11],IC50 [8],IC50 [12],other results
O=c1cc(-c2ccc(OCCOCCNCc3ccccn3)cc2)oc2ccccc12 [FM09m.HCl],–,–,–,–,–,–,–,IC50 [1]: > 10 µM; IC50 [2]: 7.86 ± 2.15 µM; IC50 [3]: 28.3 µM; IC50 [4]: 18.2 ± 2.13 µM; IC50 [5]: 14.3 ± 3.3 µM
O=c1cc(-c2ccc(OCCOCCN(Cc3ncccc3F)Cc3ncccc3F)cc2)oc2ccccc12 [FM09c.HCl],–,–,–,–,–,–,–,IC50 [1]: 2.9 ± 1.49 µM; IC50 (mouse fibroblast (L929)): 39 ± 6.1 µM; IC50 [2]: 1.45 ± 0.31 µM; IC50 [4]: 4.97 ± 1.04 µM; IC50 [5]: 2.66 ± 0.3 µM
COc1ccnc(CN(CCOCCOc2ccc(-c3cc(=O)c4ccccc4o3)cc2)Cc2nccc(OC)c2OC)c1OC [FM09aHCl],–,–,–,–,–,–,–,IC50 [1]: 0.5 ± 0.02 µM; IC50 (mouse fibroblast (L929)): 12.9 ± 2.4 µM; IC50 [2]: 0.35 ± 0.01 µM; IC50 [4]: 0.99 ± 0.19 µM; IC50 [5]: 0.77 ± 0.19 µM
"CCCCCCCCCCCCCCCCOP(=O)([O-])OCC[N+](C)(C)C [Miltefosine, reference compound]",32.7 ± 26.9 µM,5.1 ± 1.4 µM,32.7 ± 26.9 µM,–,–,–,75.3 ± 9.4 µM,IC50 ([6]; Leishmania major): 9.7 ± 1.2 µM; IC50 ([7]; Leishmania donovani): 17.3 ± 2.1 µM; Selective index (a)/(b) [2]: 0.6; Selective index (a)/(c) ([9]; IC50 RAW264.7 over IC50 L. donovani Ld39 amastigotes): 1.3; IC50 [9]: 16 ± 6.4 µM; IC50 [10]: 13 ± 1.3 µM
Cl.O=c1cc(-c2ccc(OCCC3CCN(Cc4ccncc4)CC3)cc2)oc2ccccc12 [FM05.HCl],–,–,–,–,–,–,–,IC50 [6]: 3.5 ± 0.9 µM; IC50 [7]: 1.2 ± 0.5 µM; IC50 ([2]; listed as FM05.HCI): 6.9 ± 0.9 µM; IC50 [3]: 23.8 µM; AUC(0-7 hr) [15]: 83089 ng·min/mL; Cmax (obs) [15]: 312.8 ng/mL; Half-life (Distribution and absorption) [15]: 0.417 h; Half-life (Elimination) [15]: 3.37 h; MRT (area) [15]: 5.35 h; Tmax (obs) [15]: 2 h; IC50 [5]: 6 ± 0.5 µM
